Results taken from patent US20180092934A1, “COMPOSITION FOR DNA PROTECTION” (priority 2016, published 2018).

Key:
[1] = system: 8-hydroxy-2-deoxyguanosine (8-OHdG); test: Serum 8-OHdG ELISA, alcohol-induced DNA damage in rats; format: in vivo, Male Wistar albino rats; conditions: single oral dose in 30% alcohol 4 gm/kg, 4 hr data, n = 4
Source text: In nuclear and mitochondrial DNA, 8-hydroxy-2′-deoxyguanosine (8-OHdG) is one of the predominant forms of free radical-induced oxidative lesions, and is used as a biomarker for oxidative stress. Rat 8-OHdG ELISA kit from Elabscience is used for the assay. (Valavanidis A et al (2009). 8-hydroxy-2′-deoxyguanosine (8-OHdG): A critical biomarker of oxidative stress and carcinogenesis. J Environ Sci Health C Environ Carcinog Ecotoxicol Rev. 27(2):[…]).
(§1) Saline/Alcohol (4.0 gm/kg/day, p.o.)/Formulation with alcohol (4.0 gm/kg/day, p.o.) were administered (fed orally by orogastric cannula) for one day. Blood samples were collected before administration of the Saline/Alcohol/Formulation with alcohol and designated as ‘0’ hour, then 2 and 4 hours after the dose. For comet assay one part of the blood was collected in heparinised tube and the other part was allowed to clot to get serum for 8-OHdG assay. Single cell gel electrophoresis (SCGE, the Comet assay) was carried out using whole blood (Cheng-Hung Chuang, Miao-Lin Hu. Use of whole blood directly for single-cell gel electrophoresis (comet) assay in vivo and white blood cells for in vitro assay. Mutation Research; 564 (2004) 75-82.). In short, 15 μl of whole blood was mixed with low melting agarose and fixed on a microscope slide. Those are then lysed by buffer enriched with detergent and high salt. Concomitant electrophoresis at alkaline pH results in unwinding of DNA followed by structures close to comets, when observed by fluorescence microscopy. The intensity of the comet tail relative to the head presents the number of DNA breaks. The probable basis for this is that loops containing a break lose their super coiling and become free to extend toward the anode. This is followed by visual analysis with staining of DNA and calculating fluorescence to determine the extent of DNA damage (Collins, A. R. (2004). “The comet assay for DNA damage and repair: principles, applications, and limitations”. Mol. Biotechnol. 26 (3): 249-261). 8-hydroxy-2-deoxyguanosine was estimated (8-OHdG) by ELISA kit using competitive-ELISA as the method. The microtiter plate is pre-coated with 8-OHdG. 8-OHdG in the sample or standard competes with a fixed amount of 8-OHdG on the solid phase supporter for sites on the Biotinylated Detection Ab specific to 8-OHdG. Excess conjugate and unbound sample or standard were washed from the plate, and Avidin conjugated to Horseradish Peroxidase (HRP) is added to each microplate well. After incubation a TMB substrate solution is added to each well. The enzyme-substrate reaction is terminated by the addition of a sulphuric acid solution and the color change was measured by plate reader at a wavelength of 450 nm±2 nm. The concentration of 8-OHdG in the samples was then determined by comparing the OD of the samples to the standard curve (Szymańska-Chabowska A et al, Evaluation of DNA Damage in People Occupationally Exposed to Arsenic and Some Heavy Metals. Polish J. of Environ. Stud. Vol. 18, No. 6 (2009), 1131-1139).
(§2) % Protection=1−[(T−NS)/(AL−NS)]×100
(§3) T=Mean value of drug treated, NS=Mean value of normal control, AL=Mean value of alcohol alone.
Male Wistar albino rats weighing 150-200 g were procured and randomly divided into groups consisting of four (4) animals in each group. DNA damage was induced by alcohol in rats by oral administration of 30% alcohol (4 gm/kg/p.o.) once (single dose) and this group served as the negative control and treated groups received different formulations.
All drug solutions were prepared in 40% aqueous alcohol, adjusting the pH in the range of 5.0-10.0 for evaluation of alcohol induced DNA damage and protection against it. This solution was further diluted with distilled water to obtain 30% aqueous alcoholic solution and administered orally by gavage to different rats group of step (1a). […]

[2] = system: alcohol induced DNA damage; test: Comet assay (SCGE) on whole blood, alcohol-induced DNA damage in rats; format: in vivo, Male Wistar albino rats; conditions: single oral dose in 30% alcohol 4 gm/kg, 4 hr data, n = 4
Source text: The Single Cell Gel Electrophoresis assay (SCGE, also known as comet assay) is a straightforward and sensitive technique for the detection of DNA damage at the level of the individual eukaryotic cell. It is being used as a standard technique for evaluation of DNA damage/repair, biomonitoring and genotoxicity testing. It involves the encapsulation of cells in a low-melting-point agarose suspension, lysis of the cells in neutral or alkaline (pH>13) conditions, and electrophoresis of the suspended lysed cells. The term “comet” refers to the pattern of DNA migration through the electrophoresis gel, which often resembles a comet (Cheng-Hung Chuang, Miao-Lin Hu. Use of whole blood directly for single-cell gel electrophoresis (comet) assay in vivo and white blood cells for in vitro assay. Mutation Research; 564 (2004) 75-82.).
as §1, §2, §3
Male Wistar albino rats weighing 150-200 g were procured and randomly divided into groups consisting of four (4) animals in each group. DNA damage was induced by alcohol in rats by oral administration of 30% alcohol (4 gm/kg/p.o.) once (single dose) and this group served as the negative control and treated groups received different formulations. […]

| Structure (SMILES) | 8OHdG Protection [1] [%] | COMET Protection [2] [%] |
| --- | --- | --- |
| OC[C@@H](O)[C@@H](O)[C@H](O)[C@H](O)CO [1.2 Man, D-Mannitol] | 24.85 | 13.59 |
| OC[C@@H](O)[C@@H](O)CO [2.5 Ery, D-Erythritol] | 37.28 | 34.71 |
| OC[C@@H](O)[C@@H](O)[C@H](O)[C@H](O)CO [0.8 Man, D-Mannitol] | 14.20 | 9.22 |
| CC1(C)[C@@H](O[C@H]2O[C@H](C(=O)O)[C@@H](O)[C@H](O)[C@H]2O[C@@H]2O[C@H](C(=O)O)[C@@H](O)[C@H](O)[C@H]2O)CC[C@]2(C)[C@H]3C(=O)C=C4[C@H]5C[C@@](C)(C(=O)O)CC[C@]5(C)CC[C@@]4(C)[C@]3(C)CC[C@@H]12 [0.1 18α-GA, 18α-Glycyrrhizin] | 4.20 | 0.59 |
| OC[C@@H](O)[C@@H](O)[C@H](O)[C@H](O)CO [0.5 Man, D-Mannitol] | 7.69 | 5.34 |
| CC1(C)[C@@H](O[C@H]2O[C@H](C(=O)O)[C@@H](O)[C@H](O)[C@H]2O[C@@H]2O[C@H](C(=O)O)[C@@H](O)[C@H](O)[C@H]2O)CC[C@]2(C)[C@H]3C(=O)C=C4[C@@H]5C[C@@](C)(C(=O)O)CC[C@]5(C)CC[C@@]4(C)[C@]3(C)CC[C@@H]12 [0.3 18β-GA, 18β-Glycyrrhizin] | 11.24 | 6.07 |
| CC1(C)[C@@H](O[C@H]2O[C@H](C(=O)O)[C@@H](O)[C@H](O)[C@H]2O[C@@H]2O[C@H](C(=O)O)[C@@H](O)[C@H](O)[C@H]2O)CC[C@]2(C)[C@H]3C(=O)C=C4[C@@H]5C[C@@](C)(C(=O)O)CC[C@]5(C)CC[C@@]4(C)[C@]3(C)CC[C@@H]12 [0.04 18β-GA, 18β-Glycyrrhizin] | 0 | 0 |
| OC[C@@H](O)[C@@H](O)CO [0.8 Ery, D-Erythritol] | 15.98 | 8.25 |
| OC[C@@H](O)[C@@H](O)CO [1.2 Ery, D-Erythritol] | 23.08 | 18.69 |
| CC1(C)[C@@H](O[C@H]2O[C@H](C(=O)O)[C@@H](O)[C@H](O)[C@H]2O[C@@H]2O[C@H](C(=O)O)[C@@H](O)[C@H](O)[C@H]2O)CC[C@]2(C)[C@H]3C(=O)C=C4[C@H]5C[C@@](C)(C(=O)O)CC[C@]5(C)CC[C@@]4(C)[C@]3(C)CC[C@@H]12 [0.3 18α-GA, 18α-Glycyrrhizin] | 10.46 | 5.78 |
| CC1(C)[C@@H](O[C@H]2O[C@H](C(=O)O)[C@@H](O)[C@H](O)[C@H]2O[C@@H]2O[C@H](C(=O)O)[C@@H](O)[C@H](O)[C@H]2O)CC[C@]2(C)[C@H]3C(=O)C=C4[C@@H]5C[C@@](C)(C(=O)O)CC[C@]5(C)CC[C@@]4(C)[C@]3(C)CC[C@@H]12 [0.1 18β-GA, 18β-Glycyrrhizin] | 3.55 | 0.97 |
| OC[C@@H](O)[C@@H](O)[C@H](O)[C@H](O)CO [2.5 Man, D-Mannitol] | 40.24 | 33.98 |
